Patent US20230172921A1, “LERIGLITAZONE FOR TREATING LUNG INFLAMMATION AND INTERSTITIAL LUNG DISEASE” (Minoryx Therapeutics S.L., priority 2020, published 2023)
Where “and” joins values, the source holds several entries; their conditions need not be identical. Equal entries are not always repeated. Structures can show the parent of a compound that is named as a salt.

Tests used:
[1] = test system: LPS induced acute lung injury (ALI) model; assay: LPS induced acute lung injury model in mouse; format: in vivo; conditions: for CD45+ % Decrease vs vehicle / CD45+ Mean / IL-6 % Decrease vs vehicle / IL-6 Mean / IL-12p40 % Decrease vs vehicle / IL-12p40 Mean / IP-10 % Decrease vs vehicle / IP-10 Mean / MIG % Decrease vs vehicle / MIG Mean / Neutrophils % Decrease vs vehicle / Neutrophils Mean / RANTES % Decrease vs vehicle / RANTES Mean / T cells % Decrease vs vehicle / T cells Mean / TNF % Decrease vs vehicle / TNF Mean / Total Protein in BALF % Decrease vs vehicle / Total Protein in BALF Mean: BALF Day 3; for decrease in neutrophil recruitment in the alveoli / decrease in neutrophil recruitment in the interstitium / reduction in mononuclear cell infiltration in the perivascular/peribronchiolar space / reduction of septal thickening in the alveoli: lung H&E histopathology score; for decrease in neutrophil recruitment in the alveoli / decrease in neutrophil recruitment in the interstitium / reduction in mononuclear cell infiltration in the perivascular/peribronchiolar space: FIG. 21; for reduction of septal thickening in the alveoli: FIG. 22
Description: Table 2 summarizes the groups tested in the LPS induced acute lung injury (ALI) model study in mice. [table] Briefly, C57Bl/6 7-8 week old mice were exposed to lipopolysaccharide (LPS) oral aspiration (5 mg/Kg). The animals were treated orally with either vehicle, M3 (50 mg/Kg, or MIN-102 at different doses 25 and 50 mg/Kg) bid from Day −1 to Day 2, 6-8 h apart and QD on Day 3 1 h before euthanasia. On Day 3 protein content, cytokine assessment and leukocyte count by FACS analysis were performed in the bronchoalveolar lavage fluid (BALF). The results are shown in FIGS. 11-20, and Tables 3 and 4. The lungs were collected, embedded and processed for H&E histology.

[2] = Lung/blood distribution ratio in rat; format: in vivo; conditions: lung and blood
[3] = Unbound fraction in human plasma; format: in vitro ADME
[4] = test system: Macrophages exposed to SARS-CoV-2; assay: Cytokine production in macrophages in the presence of SARS-CoV-2 (Luminex); format: cell-based; conditions: macrophages exposed to SARS-CoV-2, supernatant 24 h post-infection
[5] = maximal over doses 25 and 50 mg/kg, BALF

CC(=O)c1ccc(CCOc2ccc(CC3SC(=O)NC3=O)cc2)nc1 (stereo not shown) [Compound M3, 5-[[4-[2-[5-Acetylpyridin-2-yl]ethoxy]phenyl]methyl]-1,3-thiazolidine-2,4-dione]
CD45+ % Decrease vs vehicle ([1]; 50 mg/kg PO BID): 67% and 67.35%
CD45+ Mean ([1]; 50 mg/kg PO BID): 317269 cells/ml BALF
IL-6 % Decrease vs vehicle ([1]; 50 mg/kg PO BID): 96.86%
IL-6 Mean ([1]; 50 mg/kg PO BID): 15.29 pg/mL
IL-12p40 % Decrease vs vehicle ([1]; 50 mg/kg PO BID): 86.71%
IL-12p40 Mean ([1]; 50 mg/kg PO BID): 4.586 pg/mL
IP-10 % Decrease vs vehicle ([1]; 50 mg/kg PO BID): 79.17%
IP-10 Mean ([1]; 50 mg/kg PO BID): 1045 pg/mL
MIG % Decrease vs vehicle ([1]; 50 mg/kg PO BID): 90.75%
MIG Mean ([1]; 50 mg/kg PO BID): 256.2 pg/mL
Neutrophils % Decrease vs vehicle ([1]; 50 mg/kg PO BID): 72% and 72.06%
Neutrophils Mean ([1]; 50 mg/kg PO BID): 179793 cells/ml BALF
RANTES % Decrease vs vehicle ([1]; 50 mg/kg PO BID): 93.19%
RANTES Mean ([1]; 50 mg/kg PO BID): 3.838 pg/mL
T cells % Decrease vs vehicle ([1]; 50 mg/kg PO BID): 74% and 74.14%
T cells Mean ([1]; 50 mg/kg PO BID): 9554 cells/ml BALF
TNF % Decrease vs vehicle ([1]; 50 mg/kg PO BID): 68.26%
TNF Mean ([1]; 50 mg/kg PO BID): 10 pg/mL
Total Protein in BALF % Decrease vs vehicle ([1]; 50 mg/kg PO BID): 63% and 63.24%
Total Protein in BALF Mean ([1]; 50 mg/kg PO BID): 167 µg/mL
reduction of B cells ([1]; 50 mg/kg, BALF): 52%
decrease in neutrophil recruitment in the alveoli [1]: 64%
decrease in neutrophil recruitment in the interstitium [1]: 62%
reduction in mononuclear cell infiltration in the perivascular/peribronchiolar space [1]: 40%
reduction of septal thickening in the alveoli [1]: 79%

CCc1ccc(CCOc2ccc(CC3SC(=O)NC3=O)cc2)nc1 (stereo not shown) [Pioglitazone, reference compound]
Kp [2]: 0.3
Unbound % in Plasma (human) [3]: 0.2%

CC(O)c1ccc(CCOc2ccc(CC3SC(=O)NC3=O)cc2)nc1 (racemic) [MIN-102, 5-[[4-[2-[5-(1-hydroxyethyl)pyridin-2-yl]ethoxy]phenyl]methyl]-1,3-thiazolidine-2,4-dione hydrochloride]
effect on IL2 secretion [4]: No effect
effect on IL7 secretion [4]: No effect
reduction of MIP1-α secretion [4]: 90%
Kp [2]: 0.83
CD45+ % Decrease vs vehicle ([1]; 25 mg/kg PO BID): 52.36%
CD45+ Mean ([1]; 25 mg/kg PO BID): 462941 cells/ml BALF
IL-6 % Decrease vs vehicle ([1]; 25 mg/kg PO BID): 76.17%
IL-6 Mean ([1]; 25 mg/kg PO BID): 116.2 pg/mL
IL-12p40 % Decrease vs vehicle ([1]; 25 mg/kg PO BID): 55.14%
IL-12p40 Mean ([1]; 25 mg/kg PO BID): 15.48 pg/mL
IP-10 % Decrease vs vehicle ([1]; 25 mg/kg PO BID): 47.55%
IP-10 Mean ([1]; 25 mg/kg PO BID): 627.6 pg/mL
MIG % Decrease vs vehicle ([1]; 25 mg/kg PO BID): 50.52%
MIG Mean ([1]; 25 mg/kg PO BID): 1369 pg/mL
Neutrophils % Decrease vs vehicle ([1]; 25 mg/kg PO BID): 56.41%
Neutrophils Mean ([1]; 25 mg/kg PO BID): 280504 cells/ml BALF
RANTES % Decrease vs vehicle ([1]; 25 mg/kg PO BID): 61.57%
RANTES Mean ([1]; 25 mg/kg PO BID): 21.68 pg/mL
T cells % Decrease vs vehicle ([1]; 25 mg/kg PO BID): 43.43%
T cells Mean ([1]; 25 mg/kg PO BID): 20898 cells/ml BALF
TNF % Decrease vs vehicle ([1]; 25 mg/kg PO BID): 59.19%
TNF Mean ([1]; 25 mg/kg PO BID): 12.85 pg/mL
Total Protein in BALF % Decrease vs vehicle ([1]; 25 mg/kg PO BID): 46.00%
Total Protein in BALF Mean ([1]; 25 mg/kg PO BID): 245.3 µg/mL
CD45+ % Decrease vs vehicle ([1]; 50 mg/kg PO BID): 49.83%
CD45+ Mean ([1]; 50 mg/kg PO BID): 487506 cells/ml BALF
IL-6 % Decrease vs vehicle ([1]; 50 mg/kg PO BID): 87.13%
IL-6 Mean ([1]; 50 mg/kg PO BID): 62.78 pg/mL
IL-12p40 % Decrease vs vehicle ([1]; 50 mg/kg PO BID): 71.41%
IL-12p40 Mean ([1]; 50 mg/kg PO BID): 9.868 pg/mL
IP-10 % Decrease vs vehicle ([1]; 50 mg/kg PO BID): 55.42%
IP-10 Mean ([1]; 50 mg/kg PO BID): 731.5 pg/mL
MIG % Decrease vs vehicle ([1]; 50 mg/kg PO BID): 73.18%
MIG Mean ([1]; 50 mg/kg PO BID): 741.7 pg/mL
Neutrophils % Decrease vs vehicle ([1]; 50 mg/kg PO BID): 57.85%
Neutrophils Mean ([1]; 50 mg/kg PO BID): 271223 cells/ml BALF
RANTES % Decrease vs vehicle ([1]; 50 mg/kg PO BID): 79.24%
RANTES Mean ([1]; 50 mg/kg PO BID): 11.71 pg/mL
T cells % Decrease vs vehicle ([1]; 50 mg/kg PO BID): 42.49%
T cells Mean ([1]; 50 mg/kg PO BID): 21245 cells/ml BALF
TNF % Decrease vs vehicle ([1]; 50 mg/kg PO BID): 68.26%
TNF Mean ([1]; 50 mg/kg PO BID): 10 pg/mL
Total Protein in BALF % Decrease vs vehicle ([1]; 50 mg/kg PO BID): 49.50%
Total Protein in BALF Mean ([1]; 50 mg/kg PO BID): 229.4 µg/mL
decrease of total number of leukocytes (CD45 positive cells) vs vehicle group ([1]; in all doses (25 and 50 mg/kg), BALF): 50%
decrease in neutrophil recruitment in the alveoli [1]: 53%
decrease in neutrophil recruitment in the interstitium [1]: 48%
reduction in mononuclear cell infiltration in the perivascular/peribronchiolar space [1]: 31%
reduction of septal thickening in the alveoli [1]: 43%
T cells, maximal reduction vs vehicle group [1, 5]: around 47%
neutrophils, maximal reduction vs vehicle group [1, 5]: around 58%
Unbound % in Plasma (human) [3]: 3.5%
